According to patent publication EP4417602A1, “SUBSTITUTED PYRAZOLE CARBOXAMIDES, SALTS THEREOF AND THEIR USE AS HERBICIDALLY ACTIVE SUBSTANCES” (Bayer AG, priority 2023, dated 2024):

How the values were obtained:
STEME = experiment: A. Herbicidal pre-emergence action on harmful plants (Tables A); format: in vivo, Stellaria media; conditions: visual grading after ca. 3 weeks vs untreated controls, 100% = plants have died off, 0% = as control plants
Outline: (§1)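 Greenhouse pre-emergence test: compound applied to the soil surface at 1280 g/ha or below, and herbicidal effect rated visually at ca. 3 weeks on a 0–100% scale against untreated plants.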

VIOTR = experiment: C. Herbicidal pre-emergence action, weed and crop plants (Tables C); format: in vivo, Viola tricolor
Outline: (§2)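 Seeds were sown in sandy loam and covered with soil. WP or EC formulations were sprayed onto the soil surface as aqueous suspension or emulsion with 0.5% additive, at rates of 320 g/ha or below. Plants were kept in a greenhouse, and damage was scored visually after about 3 weeks as % effect versus untreated controls (100% = dead, 0% = like control).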

DIGSA = experiment: as above; format: in vivo, Digitaria sanguinalis
Outline: as §2

POAAN = experiment: A. Herbicidal pre-emergence action on harmful plants (Tables A); format: in vivo, Poa annua
Outline: as §1

SETVI = experiment: C. Herbicidal pre-emergence action, weed and crop plants (Tables C); format: in vivo, Setaria viridis; conditions: application rate 320 g/ha; Table C10
Description: Seeds of mono- and dicotyledonous weed plants and crop plants were sown, in plastic or organic planting pots, in sandy loam and covered with soil. The compounds according to the invention, formulated in the form of wettable powders (WP) or as emulsifiable concentrates (EC), were applied to the surface of the covering soil as aqueous suspension or emulsion, with the addition of 0.5% of an additive, at an application rate of 6001 of water/ha (converted). Following treatment, the pots were placed in a greenhouse and kept under optimum growth conditions for the test plants. The visual grading of the damage to the test plants was carried out after ca. 3 weeks in comparison to untreated controls (herbicidal effect in percent (%): 100% effect = plants have died off, 0% effect = as control plants). Tables C1 to C12 below show the effects of selected compounds of the general formula (I) according to table 1 on various harmful plants and an application rate corresponding to 320 g/ha or below obtained by the experimental procedure mentioned above. Table C1: pre-emergence activity at 320g/ha against KCHSC in %

ZEAMX = experiment: F. Post-emergence effects on crop plants (Tables F); format: in vivo, Zea mays; conditions: crop plant
Outline: (§3)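 Plants were grown in sandy loam in a greenhouse and sprayed post-emergence at the single-leaf stage, 2–3 weeks after sowing. Visual damage was scored after ca. 3 weeks against untreated controls (0% = as control, 100% = dead).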

ECHCG [1] = experiment: B. Herbicidal post-emergence action on harmful plants (Tables B); format: in vivo, Echinochloa crus-galli
Outline: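 Activity was scored visually as % damage (100% = dead, 0% = like untreated) about 3 weeks after treatment. Plants at the one-leaf stage, 2-3 weeks old, were sprayed with WP/EC formulations plus 0.5% additive (600 L/ha water, up to 1280 g/ha). Plants were grown in sandy loam in a greenhouse.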

ECHCG [2] = experiment: A. Herbicidal pre-emergence action on harmful plants (Tables A); format: in vivo, Echinochloa crus-galli; conditions: visual grading after ca. 3 weeks vs untreated controls, 100% = plants have died off, 0% = as control plants
Outline: as §1

TRZAS = experiment: F. Post-emergence effects on crop plants (Tables F); format: in vivo, Triticum aestivum; conditions: crop plant
Outline: as §3

GLXMA = experiment: D. Pre-emergence effects on crop plants (Tables D); format: in vivo, Glycine max; conditions: crop plant
Outline: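 Pre-emergence soil-surface treatment at 320 g/ha or lower, using wettable-powder or emulsifiable-concentrate formulations in water plus 0.5% additive, over freshly sown seeds in covered sandy loam. Damage was rated visually as percent versus untreated pots (100% = dead plants) after about 3 weeks of greenhouse growth.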

[3] = application rate 320 g/ha, Table C12a
[4] = application rate 80 g/ha, Table C5b
[5] = application rate 320 g/ha, Table C5a
[6] = application rate 80 g/ha, Table A7c
[7] = application rate 320 g/ha, Table A7b
[8] = application rate 1280 g/ha, visual grading after ca. 3 weeks vs untreated controls, 100% = plants have died off, 0% = as control plants
[9] = application rate 1280 g/ha, Table B2a
[10] = application rate 80 g/ha, Table D4b
[11] = application rate 80 g/ha, Table C12b
[12] = application rate 320 g/ha, Table D4a

Structure (SMILES)	pre-emergence activity against GLXMA (GLXMA; [10])	pre-emergence activity against STEME (STEME; application rate 1280 g/ha)	pre-emergence activity against VIOTR (VIOTR; [3])	pre-emergence activity against DIGSA (DIGSA; [4])	pre-emergence activity against DIGSA (DIGSA; [5])	pre-emergence activity against POAAN (POAAN; [6])	pre-emergence activity against POAAN (POAAN; [7])	pre-emergence activity against POAAN (POAAN; [8])	pre-emergence activity against SETVI (SETVI)	post-emergence activity against ZEAMX in % (ZEAMX; application rate 80 g/ha)	post-emergence activity against ZEAMX in % (ZEAMX; application rate 320 g/ha)	post-emergence activity against ECHCG (ECHCG [1]; [9])	pre-emergence activity against ECHCG (ECHCG [2]; application rate 80 g/ha)	pre-emergence activity against ECHCG (ECHCG [2]; application rate 320 g/ha)	pre-emergence activity against ECHCG (ECHCG [2]; application rate 1280 g/ha)	pre-emergence activity against STEME (STEME; application rate 320 g/ha)	pre-emergence activity against VIOTR (VIOTR; [11])	further results
COCc1nn(C)cc1C(=O)N1CCCC1Cc1ccccc1F (racemic) [Example I-002]		90%	80%	90%	90%	100%	100%	100%	80%	0%	0%	90%	90%	100%	100%			
Cn1cc(C(=O)N2CCCC2Cc2ccc(F)cc2F)c(COc2ccccc2)n1 (racemic) [Example I-008]	20%	90%	90%		90%	100%	100%	100%	90%	0%	0%				90%			post-emergence activity against TRZAS in % (TRZAS; application rate 80 g/ha): 20%; post-emergence activity against TRZAS in % (TRZAS; application rate 320 g/ha): 20%
C=C(c1ccccc1F)C1CCCN1C(=O)c1cn(C)nc1COC (racemic) [Example I-023]	0%	90%	80%	90%	100%	100%	100%	100%	90%	0%	20%	90%		90%	100%	90%	80%	pre-emergence activity against GLXMA (GLXMA; [12]): 0%
COCc1nn(C(=O)OC(C)(C)C)cc1C(=O)N1CCCC1Cc1ccccc1F (racemic) [Example I-040]	0%	90%		80%	90%		100%	100%	80%	0%	0%	90%		90%	100%	90%		
COCc1nn(C)cc1C(=O)N1CCCC1Cc1ccccc1F (single isomer, unassigned) [Example I-003]		90%	90%			100%	100%	100%	80%			90%	100%	100%	100%	90%	80%	pre-emergence activity against STEME (STEME; application rate 80 g/ha): 90%; post-emergence activity against ECHCG (ECHCG [1]; application rate 320 g/ha, Table B2b): 90%

Second part, led by results:

pre-emergence activity against GLXMA (GLXMA; [10])	Structure (SMILES)	pre-emergence activity against STEME (STEME; application rate 1280 g/ha)	pre-emergence activity against VIOTR (VIOTR; [3])	pre-emergence activity against DIGSA (DIGSA; [4])	pre-emergence activity against DIGSA (DIGSA; [5])	pre-emergence activity against POAAN (POAAN; [6])	pre-emergence activity against POAAN (POAAN; [7])	pre-emergence activity against POAAN (POAAN; [8])	pre-emergence activity against SETVI (SETVI)	post-emergence activity against ZEAMX in % (ZEAMX; application rate 80 g/ha)	post-emergence activity against ZEAMX in % (ZEAMX; application rate 320 g/ha)	post-emergence activity against ECHCG (ECHCG [1]; [9])	pre-emergence activity against ECHCG (ECHCG [2]; application rate 80 g/ha)	pre-emergence activity against ECHCG (ECHCG [2]; application rate 320 g/ha)	pre-emergence activity against ECHCG (ECHCG [2]; application rate 1280 g/ha)	pre-emergence activity against STEME (STEME; application rate 320 g/ha)	pre-emergence activity against VIOTR (VIOTR; [11])	further results
0%	CNC(=O)n1cc(C(=O)N2CCCC2Cc2ccccc2F)c(COC)n1 (racemic) [Example I-051]	90%	80%	90%	100%	90%	100%	100%	80%	20%		90%	90%	90%	90%	90%	80%	
0%	COCc1nn(C)cc1C(=O)N1CCCC1C(O)c1ccccc1F (single isomer, unassigned) [Example I-053]	90%		80%	90%		90%	100%	90%	0%		90%		90%	90%	90%		post-emergence activity against TRZAS in % (TRZAS; application rate 80 g/ha): 10%; post-emergence activity against TRZAS in % (TRZAS; application rate 320 g/ha): 20%; pre-emergence activity against GLXMA (GLXMA; [12]): 10%
